Measurements reported in patent US4182712A, “5-Substituted thiadiazole ureas” (Mobil Oil Corporation, priority 1977, dated 1980).

How the values were obtained:
[1] = system: crops and weed species; assay: Pre- and post-emergence herbicide tests, overall (Tables III-VI); format: in vivo; conditions: in words
Description: (§1) All crop and weed species were planted individually in 3" plastic pots containing potting soil. Four seeds each of corn, cotton, and snapbeans were seeded to a depth equal to the diameter of the seed. All other species were surface seeded and sprinkled with screened soil in an amount sufficient to cover the seed. Immediately after planting, all pots were watered by sub-irrigation in greenhouse trays. Pots for the pre-emergence phase were seeded one day before treatment.
(§2) Planting dates for the post-emergence phase were varied so that all seedlings would reach the desired stage of development simultaneously. The proper stage of seedling development for treatment in the post-emergence phase is as follows:
(§3) Compounds were tested at rates of application equivalent to 8 lbs. of actual compound per acre in a spray volume of 38 gallons per acre. Spray hood constants required to deliver the above volume are as follows:
Two weeks after treatment, pre- and post-emergence injury or control was visually rated, and the results were as shown in the following tables. Pre-emergence data are provided in TABLE III and post-emergence data are provided in TABLE IV, for compounds having the formula illustrated in TABLE I. Correspondingly, pre-emergence and post-emergence data, respectively, are set forth in TABLES V AND VI, for compounds having the formula illustrated in TABLE II.

[2] = system: Amaranth pigweed (PW); assay: Post-emergence herbicide test, amaranth pigweed; format: in vivo, Amaranthus retroflexus; conditions: 336 h, 8 lb/acre, two weeks after treatment
Description: as §1, §2
Pigweed and turnips: 1 or 2 true leaves above visible cotyledons.
as §3
(§4) Formulations for spray applications were prepared in 50 ml volumes with the following three components:
(§5) Formulations for the 4 lbs/acre rate were prepared by adjusting the amount of active ingredient accordingly.
(§6) Spray applications were made in a hood containing a removable belt and fixed spray nozzle. […]

[3] = system: Corn (CN); assay: Post-emergence herbicide test, corn; format: in vivo; conditions: Zea mays, 336 h, 2 lb/acre, two weeks after treatment
Description: as §1, §2, §3, §4, §5
Spray applications were made in a hood containing a removable belt and fixed spray nozzle. For passage through the spray hood, one pot of each specie (pre-emergence phase) was placed on the rear half of the flat. Treatments were removed to the greenhouse after spraying. […]

[4] = system: Cotton (CT); assay: Post-emergence herbicide test, cotton; format: in vivo, Gossypium hirsutum var. DPL smooth leaf; conditions: Gossypium hirsutum, 336 h, 2 lb/acre, two weeks after treatment
Description: Cotton (CT)--Gossypium hirsutum var. DPL smooth leaf
as §1, §2
Cotton: first true leaf 1" in length; expanded cotyledons.
as §3, §4, §5, §6

Compound	herbicidal effectiveness on a variety of crops and weed species [1]	selectivity toward a certain crop or weed species [1]	other results
CNC(=O)Nc1nnc(C(F)(F)F)s1 [Example 1, 1-Methyl-3-[5-Trifluoromethyl-2-(1,3,4-Thiadiazolyl)] Urea]	extremely effective		
CN(C)C(=O)Nc1nnc(C(F)(F)F)s1 [Example 2, 1,1-Dimethyl-3-[5-Trifluoromethyl-2-(1,3,4-Thiadiazolyl)] Urea]	extremely effective		
CSc1nnc(N(C)C(=O)N(C)C)s1 [Example 5, 1,1,3-trimethyl-3-[5-methylthio-2-(1,3,4-thiadiazolyl)] urea]	extremely effective		
CCNC(=O)Nc1nnc(C(F)(F)F)s1 [Example 9]		more selective when applied to a certain crop or weed species	
C=CCNC(=O)Nc1nnc(C(F)(F)F)s1 [Example 12]			selectivity post-emergence versus pre-emergence [1]: control post-emergence growth, while have little effect in regard to pre-emergence
O=C(Nc1ccc(Cl)cc1)Nc1nnc(C(F)(F)F)s1 [Example 15]		more selective when applied to a certain crop or weed species	
O=C(Nc1ccc(Cl)c(Cl)c1)Nc1nnc(C(F)(F)F)s1 [Example 16]		more selective when applied to a certain crop or weed species	pest or weed control at 8966.8 g/ha [2]: 100%
Cc1nnc(NC(=O)N(C)C)s1 [Example 19]			selectivity post-emergence versus pre-emergence [1]: The converse of this relationship
CCc1nnc(NC(=O)N(C)C)s1 [Example 20]		more selective when applied to a certain crop or weed species	
CNC(=O)Nc1nnc(CC(C)C)s1 [Example 21]		more selective when applied to a certain crop or weed species	
CNC(=O)Nc1nnc(COC)s1 [Example 25]		more selective when applied to a certain crop or weed species	
CNC(=O)Nc1nnc(SC)s1 [Example 26]	extremely effective		
CNC(=O)Nc1nncs1 [Example 35]		more selective when applied to a certain crop or weed species	
CNC(=O)N(C)c1nnc(C(F)(F)F)s1 [Example 36]	extremely effective		
CCN(C(=O)NC)c1nnc(C(F)(F)F)s1 [Example 37]	extremely effective		
CNC(=O)Nc1nnc(SCCCCl)s1 [Example 61]			pest or weed control at 2241.7 g/ha [3]: 100%; pest or weed control at 2241.7 g/ha [4]: 40%
